16 molecules from patent publication US4109000A, “5-Benzylpicolinic acid derivatives” (Nippon Shinyaku Co., Ltd., priority 1975, dated 1978) can be followed below.

Series [1] has as its system spontaneously hypertensive rats. Briefly: percent decrease in blood pressure in spontaneously hypertensive rats, oral. Type of series: in vivo, spontaneously hypertensive rats (male). The following applies: for % Decrease in blood pressure, 1hr.: after 1 hr; for % Decrease in blood pressure, 2hrs.: after 2 hrs; for % Decrease in blood pressure, 3hrs.: after 3 hrs; for inhibition in vivo at 50 mg/kg: Rattus norvegicus, po, read-out: % Decrease in blood pressure, 5hrs. The protocol: The pharmacological action of the product of the present invention can be conventionally observed as follows: 50 mg/kg of a sample was administered orally to spontaneously hypertensive rats (male 20-40 weeks age) and percent decrease in blood pressure after 1, 2, 3 and 5 hours was determined, using the known fusaric acid as a reference. Acute toxicity of the compounds was determined by introperitoneal administration of the samples to ddY male mice (6 weeks age), followed by calculation of the values after observation for one week.

A short description of series [2]: acute toxicity (LD50), intraperitoneal, ddY male mice. The following applies: mouse, in vivo, ip, ddY male mice (6 weeks age). Here is the method:
The pharmacological action of the product of the present invention can be conventionally observed as follows: 50 mg/kg of a sample was administered orally to spontaneously hypertensive rats (male 20-40 weeks age) and percent decrease in blood pressure after 1, 2, 3 and 5 hours was determined, using the known fusaric acid as a reference. Acute toxicity of the compounds was determined by introperitoneal administration of the samples to ddY male mice (6 weeks age), followed by calculation of the values after observation for one week. The results are as follows:

The target in another series is T1, dopamine-β-hydroxylase (Bos taurus, UniProt P15101).
T1 sequence (P15101 1-610): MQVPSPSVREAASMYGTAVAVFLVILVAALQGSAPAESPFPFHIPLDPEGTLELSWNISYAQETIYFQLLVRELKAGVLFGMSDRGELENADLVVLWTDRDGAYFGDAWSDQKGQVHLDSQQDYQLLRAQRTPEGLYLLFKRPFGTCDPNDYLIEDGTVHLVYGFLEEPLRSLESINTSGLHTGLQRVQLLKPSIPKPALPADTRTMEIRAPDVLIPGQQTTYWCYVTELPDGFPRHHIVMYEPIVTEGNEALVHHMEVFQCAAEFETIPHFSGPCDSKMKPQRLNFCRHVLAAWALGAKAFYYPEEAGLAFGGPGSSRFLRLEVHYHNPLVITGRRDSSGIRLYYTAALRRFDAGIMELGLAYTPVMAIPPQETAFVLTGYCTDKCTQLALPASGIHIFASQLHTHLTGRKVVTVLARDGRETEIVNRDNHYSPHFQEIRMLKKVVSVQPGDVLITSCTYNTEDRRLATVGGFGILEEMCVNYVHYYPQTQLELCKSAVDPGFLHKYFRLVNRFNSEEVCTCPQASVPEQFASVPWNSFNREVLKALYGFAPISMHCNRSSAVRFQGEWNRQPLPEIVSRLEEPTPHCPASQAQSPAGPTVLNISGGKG
Briefly: dopamine-β-hydroxylase inhibitory activity. Type of series: biochemical.

[3] abbreviates: 50 mg/kg orally, spontaneously hypertensive rats (male 20-40 weeks).
[4] abbreviates: 50 mg/kg orally, spontaneously hypertensive rats (male 20-40 weeks), after 5 hrs.
Setting [5] is: intraperitoneal, observation for one week (first table), read-out: LD50.
Setting [6] is: observation for one week (second table), read-out: LD50 (i.p.).

As a reminder, the LD50 is the dose expected to kill half of the subjects tested. A word on the IC50: it is the point on the concentration scale where inhibition reaches its midpoint.

The structures appear in SMILES notation. Values after ≈ are worked out from the molar mass of the structure shown. Where two headings read alike, the source gives them in different places.

Regarding `O=C(O)c1ccc(Cc2ccccc2)cn1` [5-Benzylpicolinic acid, 5-benzylpicolinic acid], in series [1] (setting [3]), the “% Decrease in blood pressure, 1hr.” value worked out at 12.7%; the “% Decrease in blood pressure, 2hrs.” value is reported as 19.0%; the “% Decrease in blood pressure, 3hrs.” value came out at 24.9%. In series [1] (setting [4]), the inhibition in vivo at 50 mg/kg came to 29.5%. Further, the LD50 at 168 h in series [2] (setting [5]) stood at 138 mg/kg.
With `O=C(O)c1ccc(Cc2ccc([N+](=O)[O-])cc2)cn1` [5-(4-Nitrobenzyl)-picolinic acid, 5-(4-nitrobenzyl)picolinic acid], the inhibition in vivo at 50 mg/kg in series [1] (setting [4]) turned out to be 39.8%. Moreover, in series [2] (setting [5]), the LD50 at 168 h came out at 177 mg/kg.
For `CCOC(=O)c1ccc(Cc2ccc(O)cc2)cn1` [Ethyl 5-(4-hydroxybenzyl)-picolinate, ethyl 5-(4-hydroxybenzyl)picolinate], the LD50 at 168 h in series [2] (setting [6]) is 594 mg/kg. On dopamine-β-hydroxylase, half-maximal inhibition (IC50) was put at 0.0276 µM.
Take `COC(=O)c1ccc(Cc2ccccc2)cn1` [Methyl 5-benzylpicolinate]: the inhibition in vivo at 50 mg/kg in series [1] (setting [4]) amounted to 48.8%. Besides, the LD50 at 168 h in series [2] (setting [5]) was determined as 88 mg/kg.
With `O=C(O)c1ccc(Cc2ccc(Cl)cc2)cn1` [5-(4-Chlorobenzyl)-picolinic acid, 5-(4-Chlorobenzyl)picolinic acid], in series [1] (setting [3]), the “% Decrease in blood pressure, 1hr.” value is reported as 26.4%; the “% Decrease in blood pressure, 2hrs.” value is given as 42.1%; the “% Decrease in blood pressure, 3hrs.” value came to 48.6%. Besides, in series [1] (setting [4]), the inhibition in vivo at 50 mg/kg is 50.3%. Besides, in series [2] (setting [5]), the LD50 at 168 h is 120 mg/kg.
For the molecule `O=C(O)c1ccccn1` [Picolinic Acid], on dopamine-β-hydroxylase, the IC50 was 8.12 µM.
On to `O=C(O)c1ccc(Cc2ccc(O)c(O)c2)cn1` [5-(3,4-Dihydroxybenzyl)-picolinic Acid, 5-(3,4-dihydroxybenzyl)picolinic acid], for which the LD50 at 168 h in series [2] (setting [6]) was found to be 561 mg/kg. Moreover, on dopamine-β-hydroxylase, the IC50 is 0.0359 µM.
For the molecule `COc1ccccc1Cc1ccc(C(=O)O)nc1` [5-(2-Methoxybenzyl)-picolinie acid, 5-(2-Methoxybenzyl)picolinic acid], in series [1] (setting [3]), the “% Decrease in blood pressure, 1hr.” value was found to be 25.9%; the “% Decrease in blood pressure, 2hrs.” value was determined as 26.9%; the “% Decrease in blood pressure, 3hrs.” value is 26.0%. Moreover, the inhibition in vivo at 50 mg/kg in series [1] (setting [4]) came out at 25.5%. Moreover, the LD50 at 168 h in series [2] (setting [5]) came out at 177 mg/kg.
Turning to `O=C(NCc1ccccc1)c1ccc(Cc2ccccc2)cn1` [5-Benzylpicolinic acid N-benzylamide], the inhibition in vivo at 50 mg/kg in series [1] (setting [4]) is 27.1%. For the same molecule, in series [2] (setting [5]), the LD50 at 168 h worked out at 707 mg/kg.
Consider `Nc1ccc(Cc2ccc(C(=O)O)nc2)cc1` [5-(4-Aminobenzyl)-picolinic Acid], for which the IC50 at dopamine-β-hydroxylase is 0.333 µM.
Take `COC(=O)c1ccc(Cc2ccc(O)cc2)cn1` [Methyl 5-(4-hydroxybenzyl)-picolinate, methyl 5-(4-hydroxybenzyl)-picolinate]: the LD50 at 168 h in series [2] (setting [6]) amounted to 1000 mg/kg. Moreover, on dopamine-β-hydroxylase, the IC50 is 0.0288 µM.
In the case of `COc1ccc(Cc2ccc(C(=O)O)nc2)cc1` [5-(4-Methoxybenzyl)-picolinic acid, 5-(4-methoxybenzyl)picolinic acid], in series [1] (setting [3]), the “% Decrease in blood pressure, 1hr.” value is reported as 24.8%; the “% Decrease in blood pressure, 2hrs.” value is on record as 28.1%; the “% Decrease in blood pressure, 3hrs.” value is reported as 23.4%. In addition, the inhibition in vivo at 50 mg/kg in series [1] (setting [4]) was determined as 21.9%. Also, the LD50 at 168 h in series [2] (setting [5]) amounted to 132 mg/kg.
As for `CCCCc1ccc(C(=O)O)nc1` [Fusaric acid, reference compound], in series [1] (setting [3]), the “% Decrease in blood pressure, 1hr.” value was found to be 15.6%; the “% Decrease in blood pressure, 2hrs.” value is given as 21.3%; the “% Decrease in blood pressure, 3hrs.” value was determined as 16.5%. Moreover, the inhibition in vivo at 50 mg/kg in series [1] (5 h) came out at 21%. Further, the LD50 at 168 h in series [2] (setting [5]) worked out at 80 mg/kg. Also, it took 0.0837 µM to reach half-maximal inhibition against dopamine-β-hydroxylase (IC50).
Consider `O=C(O)c1ccc(Cc2ccc(O)cc2)cn1` [5-(4-Hydroxybenzyl)-picolinic Acid, 5-(4-hydroxybenzyl)picolinic acid], for which, in series [2] (setting [6]), the LD50 at 168 h was 193 mg/kg. The same molecule registered an ID50 on dopamine-β-hydroxylase (dopamine-β-hydroxylase inhibition) of 8.9 ng/mL (≈ 0.0388 µM).
For the molecule `O=C(O)c1ccc(Cc2ccccc2O)cn1` [5-(2-Hydroxybenzyl)-picolinic Acid], the LD50 at 168 h in series [2] (setting [6]) came to 354 mg/kg. The molecule further showed an IC50 at dopamine-β-hydroxylase of 0.0916 µM.
Consider `CCOC(=O)c1ccc(Cc2ccccc2)cn1.Cl` [Ethyl 5-benzylpicolinate (Hydrochloride), ethyl 5-benzylpicolinate hydrochloride], for which the inhibition in vivo at 50 mg/kg in series [1] (setting [4]) is 32.4%. Further, the LD50 at 168 h in series [2] (setting [5]) was found to be 140 mg/kg.
